Experimental findings from US20200222531A1, “METHODS OF POPULATING PRECIPITATED PARTICLES OF A MODIFIED OR SYNTHESIZED SUBSTANCE IN A TISSUE” (priority 2010, published 2020) are described below.

The series can be described thus: Solubility of urushiol in 95% ethanol and in water. Type of series: physicochemical. The text has this:
The poison ivy allergen, urushiol, is soluble in 95% ethanol but insoluble in water. Intramuscular injection of urushiol in small volumes of 95% ethanol results in precipitation of large numbers of small insoluble particles as the ethanol is rapidly diluted by interstitial or tissue fluid, resulting in a […] enhancement of tolerogenesis per mg administered urushiol. As the most practical way to make an Ara h2 vaccine with the solubility properties needed to exploit the benefit of this delivery system may be a derivative of a process already known to enhance tolerogenesis, the inventors have the opportunity to see if the synergistic application of two methods of tolerogenesis enhancement yields a sufficiently high ratio of tolerogenicity to allergenicity to constitute a predictably safe and effective treatment for peanut allergy.

For the substance urushiol, where the note is “95% ethanol”, the “solubility in 95% ethanol” value is recorded as “soluble”. Also, the solubility in water entry (water) is “insoluble”.
